# Measurements published in paper PMC5615155 (Toxicology Reports, 2017).
# Experiments:
# [1] = single-dose pharmacokinetics and oral bioavailability; assay type: in vivo, Sprague-Dawley rats; settings: for AUClast / Cmax: S2218 in plasma
# [2] = toxicokinetics in 13-week dietary study; assay type: in vivo, Sprague-Dawley rats; settings: for bioavailability of S8069 in 13-week study: male and female, range
# [3] = dose range-finding developmental toxicity study; assay type: in vivo, Crl:CD(SD) rats
# solubility / dissolution = assay type: physicochemical
# [4] = S8069 oral gavage, 7.83 mg/kg bw S2218 equiv., F
# [5] = S8069 oral gavage, 7.83 mg/kg bw S2218 equiv., M
# [6] = S8069 oral gavage, 78.3 mg/kg bw S2218 equiv., F
# [7] = S8069 oral gavage, 78.3 mg/kg bw S2218 equiv., M
# [8] = Day 7, 140 mg/kg bw diet, M + F
# [9] = Day 91, 30 mg/kg bw diet, M + F
# [10] = Day 91, 70 mg/kg bw diet, M + F
# [11] = Day 91, 140 mg/kg bw diet, M + F
structure (smiles),measurement,setting,value
Cc1cc(C(=O)NC(C)(C)COc2cccc3c2C(N)=NS(=O)(=O)N3)cc(C)n1.O=S(=O)(O)O [S8069],%F,[1]; [4],0.77%
same,Tmax,[1]; [4],15 ± 0 min
same,t1/2,[1]; [4],69 ± 21.2 min
same,AUClast,[1]; [4],26.4 ± 14.3 ng·h/mL
same,Cmax,[1]; [4],24.4 ± 10.1 ng/mL
same,%F,[1]; [5],0.60%
same,Tmax,[1]; [5],18.8 ± 7.5 min
same,t1/2,[1]; [5],47.2 ± 6.6 min
same,AUClast,[1]; [5],23.6 ± 5.26 ng·h/mL
same,Cmax,[1]; [5],21.4 ± 1.54 ng/mL
same,%F,[1]; [6],0.29%
same,Tmax,[1]; [6],15 ± 0 min
same,t1/2,[1]; [6],58.1 ± 18.9 min
same,AUClast,[1]; [6],99.1 ± 23.2 ng·h/mL
same,Cmax,[1]; [6],106 ± 39.7 ng/mL
same,%F,[1]; [7],0.14%
same,Tmax,[1]; [7],15 ± 0 min
same,t1/2,[1]; [7],51.6 ± 20.4 min
same,AUClast,[1]; [7],55.6 ± 17.8 ng·h/mL
same,Cmax,[1]; [7],60.5 ± 16.9 ng/mL
same,%F,"[1]; oral, both test articles, male and female rats, all doses",0.14–0.77%
same,ACUM Ratio (dose-normalized AUC0-24h Day 91/Day 7),"[2]; 30 mg/kg bw, F",1.35
same,ACUM Ratio (dose-normalized AUC0-24h Day 91/Day 7),"[2]; 30 mg/kg bw, M",2.86
same,ACUM Ratio (dose-normalized AUC0-24h Day 91/Day 7),"[2]; 30 mg/kg bw, M + F",1.88
same,ACUM Ratio (dose-normalized AUC0-24h Day 91/Day 7),"[2]; 70 mg/kg bw, F",0.821
same,ACUM Ratio (dose-normalized AUC0-24h Day 91/Day 7),"[2]; 70 mg/kg bw, M",1.07
same,ACUM Ratio (dose-normalized AUC0-24h Day 91/Day 7),"[2]; 70 mg/kg bw, M + F",0.954
same,ACUM Ratio (dose-normalized AUC0-24h Day 91/Day 7),"[2]; 140 mg/kg bw, F",0.768
same,ACUM Ratio (dose-normalized AUC0-24h Day 91/Day 7),"[2]; 140 mg/kg bw, M",4.55
same,ACUM Ratio (dose-normalized AUC0-24h Day 91/Day 7),"[2]; 140 mg/kg bw, M + F",2.30
same,F:M Ratio (AUC0-24h/Dose),"[2]; Day 7, 30 mg/kg bw",1.75
same,AUC0-24h,"[2]; Day 7, 30 mg/kg bw diet, F",253 ng·h/mL
same,AUC0-24h/Dose,"[2]; Day 7, 30 mg/kg bw diet, F",9.10 ng·h/mL/mg/kg
same,Cmax,"[2]; Day 7, 30 mg/kg bw diet, F",20.1 ng/mL
same,Cmax/Dose,"[2]; Day 7, 30 mg/kg bw diet, F",0.723 ng/mL/mg/kg
same,Tmax,"[2]; Day 7, 30 mg/kg bw diet, F",3 h
same,AUC0-24h,"[2]; Day 7, 30 mg/kg bw diet, M",134 ng·h/mL
same,AUC0-24h/Dose,"[2]; Day 7, 30 mg/kg bw diet, M",5.19 ng·h/mL/mg/kg
same,Cmax,"[2]; Day 7, 30 mg/kg bw diet, M",14.0 ng/mL
same,Cmax/Dose,"[2]; Day 7, 30 mg/kg bw diet, M",0.543 ng/mL/mg/kg
same,Tmax,"[2]; Day 7, 30 mg/kg bw diet, M",1 h
same,AUC0-24h,"[2]; Day 7, 30 mg/kg bw diet, M + F",194 ng·h/mL
same,AUC0-24h/Dose,"[2]; Day 7, 30 mg/kg bw diet, M + F",7.24 ng·h/mL/mg/kg
same,Cmax,"[2]; Day 7, 30 mg/kg bw diet, M + F",11.1 ng/mL
same,Cmax/Dose,"[2]; Day 7, 30 mg/kg bw diet, M + F",0.414 ng/mL/mg/kg
same,Tmax,"[2]; Day 7, 30 mg/kg bw diet, M + F",3 h
same,F:M Ratio (AUC0-24h/Dose),"[2]; Day 7, 70 mg/kg bw",0.914
same,AUC0-24h,"[2]; Day 7, 70 mg/kg bw diet, F",610 ng·h/mL
same,AUC0-24h/Dose,"[2]; Day 7, 70 mg/kg bw diet, F",9.33 ng·h/mL/mg/kg
same,Cmax,"[2]; Day 7, 70 mg/kg bw diet, F",44.4 ng/mL
same,Cmax/Dose,"[2]; Day 7, 70 mg/kg bw diet, F",0.679 ng/mL/mg/kg
same,Tmax,"[2]; Day 7, 70 mg/kg bw diet, F",0 h
same,AUC0-24h,"[2]; Day 7, 70 mg/kg bw diet, M",641 ng·h/mL
same,AUC0-24h/Dose,"[2]; Day 7, 70 mg/kg bw diet, M",10.2 ng·h/mL/mg/kg
same,Cmax,"[2]; Day 7, 70 mg/kg bw diet, M",32.8 ng/mL
same,Cmax/Dose,"[2]; Day 7, 70 mg/kg bw diet, M",0.522 ng/mL/mg/kg
same,Tmax,"[2]; Day 7, 70 mg/kg bw diet, M",6 h
same,AUC0-24h,"[2]; Day 7, 70 mg/kg bw diet, M + F",626 ng·h/mL
same,AUC0-24h/Dose,"[2]; Day 7, 70 mg/kg bw diet, M + F",9.77 ng·h/mL/mg/kg
same,Cmax,"[2]; Day 7, 70 mg/kg bw diet, M + F",34.3 ng/mL
same,Cmax/Dose,"[2]; Day 7, 70 mg/kg bw diet, M + F",0.535 ng/mL/mg/kg
same,Tmax,"[2]; Day 7, 70 mg/kg bw diet, M + F",12 h
same,F:M Ratio (AUC0-24h/Dose),"[2]; Day 7, 140 mg/kg bw",1.48
same,AUC0-24h,"[2]; Day 7, 140 mg/kg bw diet, F",1640 ng·h/mL
same,AUC0-24h/Dose,"[2]; Day 7, 140 mg/kg bw diet, F",12.0 ng·h/mL/mg/kg
same,Cmax,"[2]; Day 7, 140 mg/kg bw diet, F",137 ng/mL
same,Cmax/Dose,"[2]; Day 7, 140 mg/kg bw diet, F",1.00 ng/mL/mg/kg
same,Tmax,"[2]; Day 7, 140 mg/kg bw diet, F",24 h
same,AUC0-24h,"[2]; Day 7, 140 mg/kg bw diet, M",1020 ng·h/mL
same,AUC0-24h/Dose,"[2]; Day 7, 140 mg/kg bw diet, M",8.16 ng·h/mL/mg/kg
same,Cmax,"[2]; Day 7, 140 mg/kg bw diet, M",57.0 ng/mL
same,Cmax/Dose,"[2]; Day 7, 140 mg/kg bw diet, M",0.456 ng/mL/mg/kg
same,Tmax,"[2]; Day 7, 140 mg/kg bw diet, M",6 h
same,AUC0-24h,[2]; [8],1330 ng·h/mL
same,AUC0-24h/Dose,[2]; [8],10.15 ng·h/mL/mg/kg
same,Cmax,[2]; [8],86.5 ng/mL
same,Cmax/Dose,[2]; [8],0.660 ng/mL/mg/kg
same,Tmax,[2]; [8],6 h
same,bioavailability of S8069 in 13-week study,"[2]; Day 7, food ad-mix",1.28–3.36%
same,F:M Ratio (AUC0-24h/Dose),"[2]; Day 91, 30 mg/kg bw",0.828
same,AUC0-24h,"[2]; Day 91, 30 mg/kg bw diet, F",376 ng·h/mL
same,AUC0-24h/Dose,"[2]; Day 91, 30 mg/kg bw diet, F",12.3 ng·h/mL/mg/kg
same,Cmax,"[2]; Day 91, 30 mg/kg bw diet, F",58.8 ng/mL
same,Cmax/Dose,"[2]; Day 91, 30 mg/kg bw diet, F",1.93 ng/mL/mg/kg
same,Tmax,"[2]; Day 91, 30 mg/kg bw diet, F",6 h
same,AUC0-24h,"[2]; Day 91, 30 mg/kg bw diet, M",427 ng·h/mL
same,AUC0-24h/Dose,"[2]; Day 91, 30 mg/kg bw diet, M",14.9 ng·h/mL/mg/kg
same,Cmax,"[2]; Day 91, 30 mg/kg bw diet, M",35.8 ng/mL
same,Cmax/Dose,"[2]; Day 91, 30 mg/kg bw diet, M",1.25 ng/mL/mg/kg
same,Tmax,"[2]; Day 91, 30 mg/kg bw diet, M",6 h
same,AUC0-24h,[2]; [9],402 ng·h/mL
same,AUC0-24h/Dose,[2]; [9],13.6 ng·h/mL/mg/kg
same,Cmax,[2]; [9],47.3 ng/mL
same,Cmax/Dose,[2]; [9],1.60 ng/mL/mg/kg
same,Tmax,[2]; [9],6 h
same,F:M Ratio (AUC0-24h/Dose),"[2]; Day 91, 70 mg/kg bw",0.703
same,AUC0-24h,"[2]; Day 91, 70 mg/kg bw diet, F",507 ng·h/mL
same,AUC0-24h/Dose,"[2]; Day 91, 70 mg/kg bw diet, F",7.67 ng·h/mL/mg/kg
same,Cmax,"[2]; Day 91, 70 mg/kg bw diet, F",27.8 ng/mL
same,Cmax/Dose,"[2]; Day 91, 70 mg/kg bw diet, F",0.421 ng/mL/mg/kg
same,Tmax,"[2]; Day 91, 70 mg/kg bw diet, F",0 h
same,AUC0-24h,"[2]; Day 91, 70 mg/kg bw diet, M",748 ng·h/mL
same,AUC0-24h/Dose,"[2]; Day 91, 70 mg/kg bw diet, M",10.9 ng·h/mL/mg/kg
same,Cmax,"[2]; Day 91, 70 mg/kg bw diet, M",60.4 ng/mL
same,Cmax/Dose,"[2]; Day 91, 70 mg/kg bw diet, M",0.880 ng/mL/mg/kg
same,Tmax,"[2]; Day 91, 70 mg/kg bw diet, M",3 h
same,AUC0-24h,[2]; [10],627 ng·h/mL
same,AUC0-24h/Dose,[2]; [10],9.32 ng·h/mL/mg/kg
same,Cmax,[2]; [10],40.0 ng/mL
same,Cmax/Dose,[2]; [10],0.594 ng/mL/mg/kg
same,Tmax,[2]; [10],3 h
same,F:M Ratio (AUC0-24h/Dose),"[2]; Day 91, 140 mg/kg bw",0.248
same,AUC0-24h,"[2]; Day 91, 140 mg/kg bw diet, F",1120 ng·h/mL
same,AUC0-24h/Dose,"[2]; Day 91, 140 mg/kg bw diet, F",9.18 ng·h/mL/mg/kg
same,Cmax,"[2]; Day 91, 140 mg/kg bw diet, F",85.0 ng/mL
same,Cmax/Dose,"[2]; Day 91, 140 mg/kg bw diet, F",0.697 ng/mL/mg/kg
same,Tmax,"[2]; Day 91, 140 mg/kg bw diet, F",12 h
same,AUC0-24h,"[2]; Day 91, 140 mg/kg bw diet, M",4550 ng·h/mL
same,AUC0-24h/Dose,"[2]; Day 91, 140 mg/kg bw diet, M",37.0 ng·h/mL/mg/kg
same,Cmax,"[2]; Day 91, 140 mg/kg bw diet, M",358 ng/mL
same,Cmax/Dose,"[2]; Day 91, 140 mg/kg bw diet, M",2.91 ng/mL/mg/kg
same,Tmax,"[2]; Day 91, 140 mg/kg bw diet, M",12 h
same,AUC0-24h,[2]; [11],2840 ng·h/mL
same,AUC0-24h/Dose,[2]; [11],23.3 ng·h/mL/mg/kg
same,Cmax,[2]; [11],222 ng/mL
same,Cmax/Dose,[2]; [11],1.82 ng/mL/mg/kg
same,Tmax,[2]; [11],12 h
same,bioavailability of S8069 in 13-week study,"[2]; Day 91, food ad-mix",2.15–9.14%
same,external developmental malformations or variations in fetuses,[3]; 125–1000 mg/kg bw/day,No external developmental malformations or variations were observed
same,Findings,"[3]; 125–1000 mg/kg bw/day oral gavage, GD 6–20",No maternal toxicity or effect on intrauterine growth up to 1000 mg/kg bw/day
same,solubility in water,solubility / dissolution,very soluble in water
same,state in 1% methylcellulose dosing formulation,"solubility / dissolution; S8069 at 10 mg/mL, S2218 at all dose levels",completely dissolved
